Data published in patent publication US7718385B2, “Bioactivation of alkylating agents for cancer treatment” (priority 2003, dated 2010).

How the values were obtained:
[1] = system: SF-539; conditions: SF-539, Central Nervous System, cited from earlier work
[2] = system: HCT-116; conditions: HCT-116, Colon, cited from earlier work
[3] = system: 786-0; conditions: 786-0, Renal, cited from earlier work
[4] = system: PC-3; conditions: PC-3, Prostate, cited from earlier work
[5] = system: K-562; conditions: K-562, Leukemia, cited from earlier work
[6] = system: HOP-62; conditions: HOP-62, Non-Small Cell Lung, cited from earlier work
[7] = system: UACC-257; conditions: UACC-257, Melanoma, cited from earlier work
[8] = system: MDA-MB 231/ATCC; conditions: cited from earlier work
[9] = system: SF-295; conditions: SF-295, Central Nervous System, cited from earlier work
[10] = system: U251; conditions: U251, Central Nervous System, cited from earlier work
[11] = system: NCI-H460; conditions: NCI-H460, Non-Small Cell Lung; cited from earlier work
[12] = system: HL-60(TB); conditions: cited from earlier work
[13] = system: SK-MEL-5; conditions: SK-MEL-5, Melanoma, cited from earlier work
[14] = molecular target: recombinant rat AOR (Rattus norvegicus, UniProt P97584, Q160G/Q263G/Q264G/Q276G)
Chain of recombinant rat AOR (P97584 whole entry Q160G/Q263G/Q264G/Q276G): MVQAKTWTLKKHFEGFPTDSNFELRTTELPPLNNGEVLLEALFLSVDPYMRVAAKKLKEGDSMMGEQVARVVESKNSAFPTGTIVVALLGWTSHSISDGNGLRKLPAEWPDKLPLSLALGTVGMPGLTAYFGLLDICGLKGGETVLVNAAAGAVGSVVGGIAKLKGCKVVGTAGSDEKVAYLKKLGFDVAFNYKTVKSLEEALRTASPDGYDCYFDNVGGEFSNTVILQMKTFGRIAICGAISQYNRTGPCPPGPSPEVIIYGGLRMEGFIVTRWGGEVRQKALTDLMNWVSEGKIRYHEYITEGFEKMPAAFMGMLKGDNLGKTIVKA
Description: Varied concentrations of illudin M were added to a 200 μl 0.5× phosphate buffered saline (PBS) solution containing 115 ng of AOR and 43.4 nmoles NADPH, and incubated for 1 minute at 37° C. Reactions were then extracted with ethyl acetate containing piperine (internal standard), dried under vacuum, resuspended in HPLC buffer A (60% acetonitrile: 40% water), and injected into a Hewlett-Packard 1050 HPLC system equipped with a Luna C18 column (Phenomenex Inc.). Metabolites were separated using buffer A at a flow rate of 1 ml/min and quantified using diode array detection at 205 nm and previously reported extinction coefficients (Tanaka, et al., 1990). Vmax and Km were calculated using the HYPER program.
Rates were quantified from metabolite peak areas using reported extinction coefficients (Tanaka, et al., 1990; McMorris, et al., 1999).

[15] = system: CCRF-CEM; conditions: cited from earlier work
[16] = system: SR; conditions: cited from earlier work
[17] = system: HOP-92; conditions: HOP-92, Non-Small Cell Lung, cited from earlier work
[18] = system: SNB-19; conditions: SNB-19, Central Nervous System, cited from earlier work
[19] = system: LOX IMVI; conditions: cited from earlier work
[20] = system: NCI-H322M; conditions: cited from earlier work
[21] = system: OVCAR-4; conditions: OVCAR-4, Ovarian, cited from earlier work

Question: What does the source list for `CC1=C(CO)C2=C(C)C3(CC3)[C@@](C)(O)C(=O)C2=C1` [Irofulven, 6-hydroxymethylacylfulvene]?
Answer: GI50 [1]: 158 nM; TGI [1]: 5.01E−07; log(GI50) [1]: −6.8; log(LC50) [1]: −6.2; log(TGI) [1]: −6.3; CC50 ([1]; read-out: LC50): 631 nM; GI50 [2]: 200 nM; TGI [2]: 5.01E−07; log(GI50) [2]: −6.7; log(LC50) [2]: −4.5; log(TGI) [2]: −6.3; CC50 ([2]; read-out: LC50): 31600 nM; GI50 [3]: 200 nM; TGI [3]: 5.01E−07; log(GI50) [3]: −6.7; log(LC50) [3]: −5.7; log(TGI) [3]: −6.3; CC50 ([3]; read-out: LC50): 2000 nM; GI50 [4]: 251 nM; TGI [4]: 1.26E−06; log(GI50) [4]: −6.6; log(LC50) [4]: −4.5; log(TGI) [4]: −5.9; CC50 ([4]; read-out: LC50): 31600 nM; GI50 [5]: 3160 nM; TGI [5]: 1.00E−04; log(GI50) [5]: −5.5; log(TGI) [5]: −4; CC50 ([5]; read-out: LC50): ≥ 100000 nM; GI50 [6]: 158 nM; TGI [6]: 3.98E−07; log(GI50) [6]: −6.8; log(LC50) [6]: −5.9; log(TGI) [6]: −6.4; CC50 ([6]; read-out: LC50): 1260 nM; GI50 [7]: 251 nM; TGI [7]: 5.01E−07; log(GI50) [7]: −6.6; log(LC50) [7]: −5.3; log(TGI) [7]: −6.3; CC50 ([7]; read-out: LC50): 5010 nM; GI50 ([8]; Breast): 316 nM; TGI ([8]; Breast): 1.26E−06; log(GI50) ([8]; Breast): −6.5; log(LC50) ([8]; Breast): −4.1; log(TGI) ([8]; Breast): −5.9; CC50 ([8]; read-out: LC50, Breast): 79400 nM; GI50 [9]: 316 nM; TGI [9]: 6.31E−06; log(GI50) [9]: −6.5; log(LC50) [9]: −5; log(TGI) [9]: −5.2; CC50 ([9]; read-out: LC50): 10000 nM; GI50 [10]: 316 nM; TGI [10]: 6.31E−06; log(GI50) [10]: −6.5; log(LC50) [10]: −4.3; log(TGI) [10]: −5.2; CC50 ([10]; read-out: LC50): 50100 nM; GI50 [11]: 50.1 nM; TGI [11]: 2.51E−07; log(GI50) [11]: −7.3; log(TGI) [11]: −6.6; GI50 ([12]; Leukemia): 251 nM; TGI ([12]; Leukemia): 2.00E−06; log(GI50) ([12]; Leukemia): −6.6; log(TGI) ([12]; Leukemia): −5.7; CC50 ([12]; read-out: LC50, Leukemia): ≥ 100000 nM; GI50 [13]: 158 nM; TGI [13]: 3.98E−07; log(GI50) [13]: −6.8; log(LC50) [13]: −6; log(TGI) [13]: −6.4; CC50 ([13]; read-out: LC50): 1000 nM; Vmax [14]: 275 nmol/min/mg; decrease in the rate of metabolism by AOR ([14]; relative to the illudins): 100 fold; GI50 ([15]; Leukemia): 2000 nM; TGI ([15]; Leukemia): 3.16E−05; log(GI50) ([15]; Leukemia): −5.7; log(TGI) ([15]; Leukemia): −4.5; CC50 ([15]; read-out: LC50, Leukemia): ≥ 100000 nM; GI50 ([16]; Leukemia): 794 nM; TGI ([16]; Leukemia): 1.00E−04; log(GI50) ([16]; Leukemia): −6.1; log(TGI) ([16]; Leukemia): −4; CC50 ([16]; read-out: LC50, Leukemia): ≥ 100000 nM; GI50 [17]: 316 nM; TGI [17]: 6.31E−07; log(GI50) [17]: −6.5; log(LC50) [17]: −4.6; log(TGI) [17]: −6.2; CC50 ([17]; read-out: LC50): 25100 nM; GI50 [18]: 316 nM; TGI [18]: 1.00E−05; log(GI50) [18]: −6.5; log(LC50) [18]: −4.2; log(TGI) [18]: −5; CC50 ([18]; read-out: LC50): 63100 nM; GI50 ([19]; Melanoma): 631 nM; TGI ([19]; Melanoma): 3.16E−06; log(GI50) ([19]; Melanoma): −6.2; log(LC50) ([19]; Melanoma): −4.4; log(TGI) ([19]; Melanoma): −5.5; CC50 ([19]; read-out: LC50, Melanoma): 39800 nM; GI50 ([20]; Non-Small Cell Lung): 251 nM; TGI ([20]; Non-Small Cell Lung): 6.31E−07; log(GI50) ([20]; Non-Small Cell Lung): −6.6; log(LC50) ([20]; Non-Small Cell Lung): −4.9; log(TGI) ([20]; Non-Small Cell Lung): −6.2; CC50 ([20]; read-out: LC50, Non-Small Cell Lung): 12600 nM; GI50 [21]: 251 nM; TGI [21]: 6.31E−07; log(GI50) [21]: −6.6; log(LC50) [21]: −4.6; log(TGI) [21]: −6.2; CC50 ([21]; read-out: LC50): 25100 nM
